According to patent US20090036400A1, “Pharmaceutical Preparations for Treating the Consequences of Alcohol Abuse, Hepatitis, Pancreatitis, Alzheimer's Disease, Parkinson's Disease, Diabetes, Toxic Kidney Disease, Reperfusion Damage, Arteriosclerosis, and as an Antidote Against Environmental Toxins and Medicinal Intoxication” (priority 2004, published 2009):
pKi: −log10 of the molar value. Structures can show the parent of a compound that is named as a salt.

target: T1, cytochrome P450 2E1 (Rattus norvegicus, UniProt P05182); assay: p-nitrophenol-hydroxylase activity determination (inhibiting constants); assay type: biochemical; conditions: microsomal fraction of acetone-induced Sprague-Dawley rats; substrate p-nitrophenol; read-out: Ki (inhibiting constant)
T1 construct: from tissue
Description: 8 male Sprague-Dawley rats were administered 5% acetone (v-v) in drinking water for 7 days, as described by M. H. Wang et al. in Arch. Biochem. Biophys. […] The preparation of the microsomal fraction is carried out based on the method published by Wang, P., Mason, P. S., Günderlich, F. G., in Arch. Biochem. Biophys.
p-Nitrophenol applies as a specific substrate for cytochrome P450 2E1.

T1 sequence (P05182 whole entry): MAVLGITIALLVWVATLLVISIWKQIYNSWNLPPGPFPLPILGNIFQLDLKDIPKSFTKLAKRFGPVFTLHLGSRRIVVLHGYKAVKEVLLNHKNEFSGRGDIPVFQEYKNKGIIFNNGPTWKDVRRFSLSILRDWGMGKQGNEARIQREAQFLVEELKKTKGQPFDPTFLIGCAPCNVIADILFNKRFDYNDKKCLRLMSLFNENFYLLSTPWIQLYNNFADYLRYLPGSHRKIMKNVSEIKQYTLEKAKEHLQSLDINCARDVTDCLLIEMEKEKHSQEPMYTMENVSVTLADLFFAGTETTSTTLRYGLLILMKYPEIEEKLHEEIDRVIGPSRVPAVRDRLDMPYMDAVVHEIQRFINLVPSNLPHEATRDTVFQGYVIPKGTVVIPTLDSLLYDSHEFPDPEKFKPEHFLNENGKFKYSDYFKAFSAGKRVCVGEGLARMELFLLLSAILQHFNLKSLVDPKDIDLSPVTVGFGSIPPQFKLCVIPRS

In order of falling pKi:
1. CCCCCCCCCCCCOP(=O)([O-])OCC[N+](C)(C)C [Dodecylphosphorylcholine]  6.35
2. CCCCCCCCCCCCCCCCOP(=O)([O-])OCC[N+](C)(C)C [Hexadecylphosphocholine, reference compound]  6.22
3. CCCCCCCCCCCCCCCCC(N)COP(=O)([O-])OCC[N+](C)(C)C (racemic) [rac-1-O-phosphocholine-2-amino-octadecane-hydrochloride]  5.65
